Measured values taken from US20230265151A1, “GIP/GLP1 CO-AGONIST COMPOUNDS” (priority 2020, published 2023).
Read-outs that look alike come from different tables or passages of the source.

Tests used:
[1] = target: T1, human GIP receptor (hGIPR) (Homo sapiens, UniProt P48546); experiment: [125I]-GIP binding, SPA with membranes of CHO cells expressing hGIPR
T1 construct: expressed in transfected cells; crude membranes
T1 sequence (P48546 22-466): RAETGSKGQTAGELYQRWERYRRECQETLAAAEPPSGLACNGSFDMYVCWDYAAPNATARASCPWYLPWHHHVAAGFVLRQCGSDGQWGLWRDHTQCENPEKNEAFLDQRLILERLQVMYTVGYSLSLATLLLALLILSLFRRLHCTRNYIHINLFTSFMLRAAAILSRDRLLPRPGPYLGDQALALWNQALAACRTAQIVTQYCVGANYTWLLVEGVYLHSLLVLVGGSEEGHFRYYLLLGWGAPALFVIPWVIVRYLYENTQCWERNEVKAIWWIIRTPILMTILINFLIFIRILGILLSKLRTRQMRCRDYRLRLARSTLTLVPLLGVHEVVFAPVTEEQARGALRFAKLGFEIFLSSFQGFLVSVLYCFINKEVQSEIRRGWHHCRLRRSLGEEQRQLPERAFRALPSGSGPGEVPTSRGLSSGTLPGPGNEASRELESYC

[2] = target: T2, human GLP-1 receptor (hGLP-1R) (Homo sapiens, UniProt P43220); experiment: [125I]-GLP-1 binding, SPA with membranes of HEK293 cells expressing hGLP-1R
T2 construct: expressed in transfected cells; crude membranes

hGIPR = target: T3, hGIPR (Homo sapiens, UniProt P48546); experiment: Functional cAMP formation (HTRF) in HEK-293 clonal cells expressing hGIPR, 0.1% bovine casein, without or with 1.0% human serum albumin; type: cell-based; details: for EC50: geometric mean
T3 construct: expressed in transfected cells
T3 sequence (P48546 22-466): T1 sequence (P48546 22-466)
Method in brief: (§1)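 Cells were stimulated with peptide for 30 min at 37° C, then intracellular cAMP was measured by competitive HTRF (665/620 nm ratio) and converted to nM using a cAMP standard curve. Relative EC50 and Emax came from four-parameter logistic fits of percent maximal response against peptide concentration.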

hGCGR = target: T4, hGCGR (Homo sapiens, UniProt P47871); experiment: Functional cAMP formation (HTRF) in HEK-293 clonal cells expressing hGCGR, 0.1% bovine casein, without or with 1.0% human serum albumin; type: cell-based; details: geometric mean
T4 construct: expressed in transfected cells
Method in brief: as §1

hGLP-1R = hGLP-1R (Homo sapiens, UniProt P43220); experiment: Functional cAMP formation (HTRF) in HEK-293 clonal cells expressing hGLP-1R, 0.1% bovine casein, without or with 1.0% human serum albumin; type: cell-based; parameters: expressed in transfected cells; details: geometric mean
Method in brief: as §1

[3] = human GIPR, geometric mean (SEM, n), read-out: Binding Affinity Ki, nM (SEM, n) hGIPR
[4] = human GLP-1R, geometric mean (SEM, n), read-out: Binding Affinity Ki, nM (SEM, n) hGLP-1R
[5] = 0.1% bovine casein and 1.0% human serum albumin, 37° C., read-out: hGIPR EC50, nM (SEM, n)
[6] = HEK293, 0.1% bovine casein and 1.0% human serum albumin, 37° C., percent of maximal response to GIP(1-42)NH2, read-out: hGIPR Emax, % ± SEM
[7] = 0.1% bovine casein and 1.0% human serum albumin, 37° C., read-out: hGCGR EC50, nM (SEM, n)
[8] = cAMP, incubated at 37° C., 0.1% bovine casein (no human serum albumin), read-out: hGCGR EC50, nM (SEM, n)
[9] = 0.1% bovine casein and 1.0% human serum albumin, 37° C., read-out: hGLP-1R EC50, nM (SEM, n)
[10] = cAMP, incubated at 37° C., 0.1% bovine casein (no human serum albumin), read-out: hGLP-1R EC50, nM (SEM, n)

Sequence of hGLP-1R (P43220 24-463): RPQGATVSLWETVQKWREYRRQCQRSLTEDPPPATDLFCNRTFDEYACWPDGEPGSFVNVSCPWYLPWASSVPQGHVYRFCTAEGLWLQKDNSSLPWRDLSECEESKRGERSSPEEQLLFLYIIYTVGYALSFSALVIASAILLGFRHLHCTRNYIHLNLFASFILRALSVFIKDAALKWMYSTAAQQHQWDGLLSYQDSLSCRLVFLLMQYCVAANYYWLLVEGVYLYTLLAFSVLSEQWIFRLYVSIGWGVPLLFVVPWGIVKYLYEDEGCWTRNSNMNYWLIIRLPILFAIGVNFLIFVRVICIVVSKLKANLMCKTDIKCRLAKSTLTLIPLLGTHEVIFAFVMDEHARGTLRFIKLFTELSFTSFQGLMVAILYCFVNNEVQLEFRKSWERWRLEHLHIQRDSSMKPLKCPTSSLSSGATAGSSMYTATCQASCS
T4 sequence (P47871 26-477): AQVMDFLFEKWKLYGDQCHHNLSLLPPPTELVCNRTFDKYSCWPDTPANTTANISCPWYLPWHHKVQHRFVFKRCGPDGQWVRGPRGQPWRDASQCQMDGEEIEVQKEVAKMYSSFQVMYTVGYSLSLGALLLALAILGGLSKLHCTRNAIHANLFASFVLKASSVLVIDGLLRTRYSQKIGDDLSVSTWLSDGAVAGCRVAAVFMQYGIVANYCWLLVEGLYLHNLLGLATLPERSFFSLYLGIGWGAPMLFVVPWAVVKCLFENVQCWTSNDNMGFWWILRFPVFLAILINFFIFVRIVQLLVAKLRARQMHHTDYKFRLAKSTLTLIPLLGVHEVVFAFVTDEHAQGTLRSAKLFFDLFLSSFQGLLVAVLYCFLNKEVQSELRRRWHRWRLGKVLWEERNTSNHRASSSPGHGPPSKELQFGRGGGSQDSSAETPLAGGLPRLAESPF

| SMILES | Ki [1, 3] | Ki [2, 4] | EC50 (hGIPR; [5]) | Emax (hGIPR; [6]) | Emax (hGIPR; HEK293, percent of maximal response to GIP(1-42)NH2, 37° C., 0.1% bovine casein, arithmetic mean, read-out: hGIPR Emax, % ± SEM) | EC50 (hGIPR; cAMP, incubated at 37° C., 0.1% bovine casein (no human serum albumin), read-out: hGIPR EC50, nM (SEM, n)) | EC50 (hGCGR; [7]) | EC50 (hGCGR; [8]) | EC50 (hGLP-1R; [9]) | EC50 (hGLP-1R; [10]) | Ki [1] | Ki [2] | Emax (hGIPR; HEK293, read-out: hGIPR Emax, % ± SEM, 0.1% bovine casein and 1.0% human serum albumin, 37° C., percent of maximal response to GIP(1-42)NH2) | Emax (hGIPR; HEK293, read-out: hGIPR Emax, % ± SEM, percent of maximal response to GIP(1-42)NH2, 37° C., 0.1% bovine casein, arithmetic mean) | EC50 (hGIPR; hGIPR EC50, nM (SEM, n), 0.1% bovine casein and 1.0% human serum albumin, 37° C.) | EC50 (hGCGR; hGCGR EC50, nM (SEM, n), 0.1% bovine casein and 1.0% human serum albumin, 37° C.) | EC50 (hGCGR; hGCGR EC50, nM (SEM, n), cAMP, incubated at 37° C., 0.1% bovine casein (no human serum albumin)) | EC50 (hGLP-1R; hGLP-1R EC50, nM (SEM, n), 0.1% bovine casein and 1.0% human serum albumin, 37° C.) | EC50 (hGLP-1R; hGLP-1R EC50, nM (SEM, n), cAMP, incubated at 37° C., 0.1% bovine casein (no human serum albumin)) |
| --- | --- | --- | --- | --- | --- | --- | --- | --- | --- | --- | --- | --- | --- | --- | --- | --- | --- | --- | --- |
| CC[C@H](C)[C@H](NC(=O)[C@H](CC(C)C)NC(=O)[C@](C)(Cc1ccc(O)cc1)NC(=O)[C@@H](CCC(=O)O)NC(=O)[C@@H](NC(=O)[C@H](Cc1ccccc1)NC(=O)[C@H](CCC(=O)O)NC(=O)C(C)(C)NC(=O)[C@H](CCC(N)=O)NC(=O)[C@H](C)NC(=O)[C@H](CCCCNC(=O)COCCOCCNC(=O)COCCOCCNC(=O)CC[C@H](NC(=O)CCCc1ccc(I)cc1)C(=O)O)NC(=O)[C@H](CCCN)NC(=O)[C@H](CC(=O)O)NC(=O)[C@H](CC(C)C)NC(=O)[C@](C)(CC(C)C)NC(=O)[C@@H](NC(=O)[C@H](CO)NC(=O)[C@H](Cc1ccncc1)NC(=O)[C@H](CC(=O)O)NC(=O)[C@H](CO)NC(=O)[C@@H](NC(=O)[C@](C)(Cc1ccccc1F)NC(=O)[C@@H](NC(=O)CNC(=O)[C@H](CCC(=O)O)NC(=O)C(C)(C)NC(=O)[C@@H](N)Cc1ccc(O)cc1)[C@@H](C)O)[C@@H](C)O)[C@@H](C)CC)[C@@H](C)CC)C(=O)N[C@@H](CCC(=O)O)C(=O)NCC(=O)NCC(=O)N[C@@H](CCCCNC(=O)COCCOCCNC(=O)COCCOCCNC(=O)CC[C@H](NC(=O)CCCc1ccc(I)cc1)C(=O)O)C(=O)N[C@@H](CO)C(=O)N[C@@H](CO)C(=O)NCC(=O)N[C@@H](C)C(=O)N1CCC[C@H]1C(=O)N1CCC[C@H]1C(=O)N1CCC[C@H]1C(=O)N[C@@H](CO)C(N)=O [Example 3] | 0.0629 nM | 0.471 nM | 0.0971 nM | 80% | 95.9 ± 2.95% | 0.0133 nM | > 9950 nM | > 9950 nM | 1.05 nM | 0.223 nM | – | – | – | – | – | – | – | – | – |
| CC[C@H](C)[C@H](NC(=O)[C@H](CC(C)C)NC(=O)[C@](C)(Cc1ccc(O)cc1)NC(=O)[C@@H](CCC(=O)O)NC(=O)[C@@H](NC(=O)[C@H](Cc1ccccc1)NC(=O)[C@H](CCC(=O)O)NC(=O)C(C)(C)NC(=O)[C@H](CCC(N)=O)NC(=O)[C@H](C)NC(=O)[C@H](CCCCNC(=O)COCCOCCNC(=O)COCCOCCNC(=O)CC[C@H](NC(=O)CCCc1ccc(C(C)(C)C)cc1)C(=O)O)NC(=O)[C@H](CCCN)NC(=O)[C@H](CC(=O)O)NC(=O)[C@H](CC(C)C)NC(=O)[C@](C)(CC(C)C)NC(=O)[C@@H](NC(=O)[C@H](CO)NC(=O)[C@H](Cc1ccncc1)NC(=O)[C@H](CC(=O)O)NC(=O)[C@H](CO)NC(=O)[C@@H](NC(=O)[C@](C)(Cc1ccccc1F)NC(=O)[C@@H](NC(=O)CNC(=O)[C@H](CCC(=O)O)NC(=O)C(C)(C)NC(=O)[C@@H](N)Cc1ccc(O)cc1)[C@@H](C)O)[C@@H](C)O)[C@@H](C)CC)[C@@H](C)CC)C(=O)N[C@@H](CCC(=O)O)C(=O)NCC(=O)NCC(=O)N[C@@H](CCCCNC(=O)COCCOCCNC(=O)COCCOCCNC(=O)CC[C@H](NC(=O)CCCc1ccc(C(C)(C)C)cc1)C(=O)O)C(=O)N[C@@H](CO)C(=O)N[C@@H](CO)C(=O)NCC(=O)N[C@@H](C)C(=O)N1CCC[C@H]1C(=O)N1CCC[C@H]1C(=O)N1CCC[C@H]1C(=O)N[C@@H](CO)C(N)=O [Example 4] | – | – | – | – | – | – | – | – | – | – | 0.0528 nM | 0.413 nM | 88.3 ± 2.17% | 92.9 ± 0.381% | 0.0296 nM | > 9950 nM | > 9950 nM | 0.584 nM | 0.137 nM |
| CCCCCCCCCCCC(=O)N[C@@H](CCC(=O)NCCOCCOCC(=O)NCCOCCOCC(=O)NCCCC[C@H](NC(=O)CNC(=O)CNC(=O)[C@H](CCC(=O)O)NC(=O)[C@@H](NC(=O)[C@H](CC(C)C)NC(=O)[C@](C)(Cc1ccc(O)cc1)NC(=O)[C@@H](CCC(=O)O)NC(=O)[C@@H](NC(=O)[C@H](Cc1ccccc1)NC(=O)[C@H](CCC(=O)O)NC(=O)C(C)(C)NC(=O)[C@H](CCC(N)=O)NC(=O)[C@H](C)NC(=O)[C@H](CCCCNC(=O)COCCOCCNC(=O)COCCOCCNC(=O)CC[C@H](NC(=O)CCCCCCCCCCC)C(=O)O)NC(=O)[C@H](CCCN)NC(=O)[C@H](CC(=O)O)NC(=O)[C@H](CC(C)C)NC(=O)[C@](C)(CC(C)C)NC(=O)[C@@H](NC(=O)[C@H](CO)NC(=O)[C@H](Cc1ccncc1)NC(=O)[C@H](CC(=O)O)NC(=O)[C@H](CO)NC(=O)[C@@H](NC(=O)[C@](C)(Cc1ccccc1F)NC(=O)[C@@H](NC(=O)CNC(=O)[C@H](CCC(=O)O)NC(=O)C(C)(C)NC(=O)[C@@H](N)Cc1ccc(O)cc1)[C@@H](C)O)[C@@H](C)O)[C@@H](C)CC)[C@@H](C)CC)[C@@H](C)CC)C(=O)N[C@@H](CO)C(=O)N[C@@H](CO)C(=O)NCC(=O)N[C@@H](C)C(=O)N1CCC[C@H]1C(=O)N1CCC[C@H]1C(=O)N1CCC[C@H]1C(=O)N[C@@H](CO)C(N)=O)C(=O)O [Example 5] | 0.0309 nM | 0.154 nM | 0.372 nM | 91.2 ± 3.65% | – | – | > 9950 nM | > 9150 nM | 4.78 nM | 0.057 nM | – | – | – | – | – | – | – | – | – |
| CCCCCCCCCCCCCCCC(=O)N[C@@H](CCC(=O)NCCOCCOCC(=O)NCCCC[C@H](NC(=O)CNC(=O)CNC(=O)[C@H](CCC(=O)O)NC(=O)[C@@H](NC(=O)[C@H](CC(C)C)NC(=O)[C@](C)(Cc1ccc(O)cc1)NC(=O)[C@@H](CCC(=O)O)NC(=O)[C@@H](NC(=O)[C@H](Cc1ccccc1)NC(=O)[C@H](CCC(=O)O)NC(=O)C(C)(C)NC(=O)[C@H](CCC(N)=O)NC(=O)[C@H](C)NC(=O)[C@H](CCCCNC(=O)COCCOCCNC(=O)CC[C@H](NC(=O)CCCCCCCCCCCCCCC)C(=O)O)NC(=O)[C@H](CCCN)NC(=O)[C@H](CC(=O)O)NC(=O)[C@H](CC(C)C)NC(=O)[C@](C)(CC(C)C)NC(=O)[C@@H](NC(=O)[C@H](CO)NC(=O)[C@H](Cc1ccncc1)NC(=O)[C@H](CC(=O)O)NC(=O)[C@H](CO)NC(=O)[C@@H](NC(=O)[C@](C)(Cc1ccccc1F)NC(=O)[C@@H](NC(=O)CNC(=O)[C@H](CCC(=O)O)NC(=O)C(C)(C)NC(=O)[C@@H](N)Cc1ccc(O)cc1)[C@@H](C)O)[C@@H](C)O)[C@@H](C)CC)[C@@H](C)CC)[C@@H](C)CC)C(=O)N[C@@H](CO)C(=O)N[C@@H](CO)C(=O)NCC(=O)N[C@@H](C)C(=O)N1CCC[C@H]1C(=O)N1CCC[C@H]1C(=O)N1CCC[C@H]1C(=O)N[C@@H](CO)C(N)=O)C(=O)O [Example 13] | 0.0575 nM | 0.691 nM | 1.45 nM | – | – | – | > 9950 nM | > 9950 nM | 6.79 nM | – | – | – | – | – | – | – | – | – | – |
